# From ChEMBL document CHEMBL1201862, “PubChem BioAssay data set” (2004)
#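 All cell lines were grown in 96-well plates and treated with compound for 48 hours. GI50 is the concentration that inhibits growth by half.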 The source made the active and inactive calls. Rule as the data show it: active = GI50 up to about 1.1 µM and inactive = higher.
# Tests used:
# Assay in all cases: NCI anticancer screen, dose series, 48 h
# [1] = tested on: 786-0
# [2] = tested on: UACC-62
# [3] = tested on: NCI-H23
# [4] = tested on: M14
# [5] = tested on: DU-145
# [6] = tested on: Malme-3M
# [7] = tested on: MOLT-4
# [8] = tested on: OVCAR-8
# [9] = tested on: SN12C
# [10] = tested on: SNB-19
# [11] = tested on: UACC-257
# [12] = tested on: A549
# [13] = tested on: MDA-MB-435
# [14] = tested on: NCI-H226
# [15] = tested on: UO-31
# [16] = tested on: HCC 2998
# [17] = tested on: RPMI-8226
# [18] = tested on: OVCAR-3
# [19] = tested on: SW-620
# [20] = tested on: MCF7
Compound,GI50 [1],GI50 [2],GI50 [3],GI50 [4],GI50 [5],GI50 [6],GI50 [7],GI50 [8],GI50 [9],GI50 [10],GI50 [11],GI50 [12],GI50 [13],GI50 [14],GI50 [15],GI50 [16],GI50 [17],GI50 [18],GI50 [19],GI50 [20]
CN1CCN(CCCN2c3ccccc3Sc3ccc(C(F)(F)F)cc32)CC1,7.93 µM (inactive),2.1 µM (inactive),14.4 µM (inactive),1.88 µM (inactive),16.4 µM (inactive),2.69 µM (inactive),4.6 µM (inactive),15.9 µM (inactive),12.2 µM (inactive),15.2 µM (inactive),2.6 µM (inactive),12.6 µM (inactive),3.35 µM (inactive),15.5 µM (inactive),5.21 µM (inactive),,,,,
CC1=NN2C(c3ccc(C)cc3)=CSC2=NC(C)(C)C1,> 100 µM (inactive),> 100 µM (inactive),> 100 µM (inactive),> 100 µM (inactive),,> 100 µM (inactive),> 100 µM (inactive),> 100 µM (inactive),> 100 µM (inactive),> 100 µM (inactive),> 100 µM (inactive),> 100 µM (inactive),,> 100 µM (inactive),> 100 µM (inactive),> 100 µM (inactive),> 100 µM (inactive),> 100 µM (inactive),> 100 µM (inactive),
CC(=O)NNc1nc(C)c(C(=O)NNC(=O)C(=O)Nc2ccc(Cl)c([N+](=O)[O-])c2)s1,50 µM (inactive),58.9 µM (inactive),37.7 µM (inactive),> 100 µM (inactive),,71.4 µM (inactive),20 µM (inactive),54.8 µM (inactive),71.8 µM (inactive),> 100 µM (inactive),37.4 µM (inactive),85.5 µM (inactive),,> 100 µM (inactive),> 100 µM (inactive),66.1 µM (inactive),43.7 µM (inactive),30.4 µM (inactive),32.2 µM (inactive),
Cc1ccc(C)c(NC(=O)C(=O)CC(=O)c2cccc3ccccc23)c1,> 100 µM (inactive),> 100 µM (inactive),> 100 µM (inactive),> 100 µM (inactive),,> 100 µM (inactive),> 100 µM (inactive),> 100 µM (inactive),> 100 µM (inactive),> 100 µM (inactive),> 100 µM (inactive),> 100 µM (inactive),,> 100 µM (inactive),> 100 µM (inactive),> 100 µM (inactive),> 100 µM (inactive),> 100 µM (inactive),> 100 µM (inactive),
C=C(C)C1CCC2=CC(CC3(C)OC3C3=CC(C(=O)OC)=C(C1)O3)OC2=O (configuration not stated),> 100 µM (inactive),,> 100 µM (inactive),> 100 µM (inactive),> 100 µM (inactive),> 100 µM (inactive),36.9 µM (inactive),> 100 µM (inactive),> 100 µM (inactive),> 100 µM (inactive),> 100 µM (inactive),> 100 µM (inactive),> 100 µM (inactive),> 100 µM (inactive),> 100 µM (inactive),,,> 100 µM (inactive),> 100 µM (inactive),> 100 µM (inactive)
CCOC(=O)c1c(C)n(Cc2ccccc2)c(=O)c2ccccc2c(=O)c2c(=O)ccc(=O)c1=2,27 µM (inactive),> 100 µM (inactive),62.8 µM (inactive),39.1 µM (inactive),> 100 µM (inactive),19.9 µM (inactive),54.7 µM (inactive),> 100 µM (inactive),41 µM (inactive),> 100 µM (inactive),> 100 µM (inactive),> 100 µM (inactive),> 100 µM (inactive),> 100 µM (inactive),17.9 µM (inactive),38.5 µM (inactive),31.2 µM (inactive),34.1 µM (inactive),33.3 µM (inactive),
Cc1ccc(S(=O)(=O)N/N=C(\C(=O)Nc2cccc([N+](=O)[O-])c2)c2nc3ccc([N+](=O)[O-])cc3nc2O)cc1,61.9 µM (inactive),25.4 µM (inactive),72.4 µM (inactive),> 100 µM (inactive),,77.3 µM (inactive),24 µM (inactive),54.2 µM (inactive),> 100 µM (inactive),> 100 µM (inactive),59.8 µM (inactive),31.8 µM (inactive),,37.2 µM (inactive),9.33 µM (inactive),30.1 µM (inactive),54.7 µM (inactive),> 100 µM (inactive),40.6 µM (inactive),
COc1cc2c(cc1O)C(C)Cc1cc3c(cc1N(C)CC2)OCO3 (configuration not stated),4.35 µM (inactive),3.5 µM (inactive),4.07 µM (inactive),3.22 µM (inactive),,3.12 µM (inactive),4.13 µM (inactive),9.25 µM (inactive),5.94 µM (inactive),7.4 µM (inactive),6.15 µM (inactive),3.94 µM (inactive),,6.65 µM (inactive),6.41 µM (inactive),5.27 µM (inactive),4.09 µM (inactive),3.03 µM (inactive),3.74 µM (inactive),
O=S(=O)(c1ccccc1)n1c2cc3cccnc3nc2c2cccnc21,71.8 µM (inactive),,44.9 µM (inactive),> 100 µM (inactive),,> 100 µM (inactive),45.3 µM (inactive),74.1 µM (inactive),81.3 µM (inactive),40.1 µM (inactive),54.6 µM (inactive),> 100 µM (inactive),25.5 µM (inactive),> 100 µM (inactive),> 100 µM (inactive),> 100 µM (inactive),18.5 µM (inactive),38.5 µM (inactive),44.7 µM (inactive),46 µM (inactive)
COc1ccc(C(=O)OC2C=COC(C)C2OC(=O)c2ccc(OC)cc2)cc1 (configuration not stated),28.8 µM (inactive),18.4 µM (inactive),16.4 µM (inactive),16.6 µM (inactive),,18.2 µM (inactive),16.3 µM (inactive),23.6 µM (inactive),23.3 µM (inactive),41.5 µM (inactive),21 µM (inactive),48.1 µM (inactive),,38.8 µM (inactive),45.4 µM (inactive),> 58.1 µM (inactive),8.22 µM (inactive),16.6 µM (inactive),15.6 µM (inactive),
COc1ccc(/C=C/C(=O)C(C)(C)CN2CCCCC2)cc1,16 µM (inactive),24.7 µM (inactive),24.5 µM (inactive),18.2 µM (inactive),,22.2 µM (inactive),21.8 µM (inactive),19 µM (inactive),18.3 µM (inactive),57.7 µM (inactive),17.4 µM (inactive),26.8 µM (inactive),,20.9 µM (inactive),17.7 µM (inactive),18.3 µM (inactive),18.2 µM (inactive),18.2 µM (inactive),1.13 µM (inactive),
Cc1cccc(N/C(=C(/C(Cl)=C(Cl)Cl)[N+](=O)[O-])n2nnc3ccccc32)c1,19.5 µM (inactive),15.5 µM (inactive),16.8 µM (inactive),21.9 µM (inactive),,14.9 µM (inactive),88.3 µM (inactive),16.5 µM (inactive),15.5 µM (inactive),18.2 µM (inactive),22 µM (inactive),18 µM (inactive),20.4 µM (inactive),12.9 µM (inactive),16.5 µM (inactive),29.2 µM (inactive),13.7 µM (inactive),15.3 µM (inactive),15.8 µM (inactive),21.6 µM (inactive)
CC1=CCC[C@@]2(C)C(CC[C@@H]2C(C)/C=C/C(C)C)c2ccc(cc2C(=O)O)C[C@@H](O)CC1 (some centres not stated),14.6 µM (inactive),10.9 µM (inactive),> 10 µM (inactive),16.9 µM (inactive),,15.7 µM (inactive),11.6 µM (inactive),15.2 µM (inactive),16 µM (inactive),5.2 µM (inactive),16.6 µM (inactive),6.14 µM (inactive),,18.5 µM (inactive),15.7 µM (inactive),9.93 µM (inactive),3.63 µM (inactive),13.7 µM (inactive),14.9 µM (inactive),
CN(C)CCNC(=O)c1cccc2nc3c(Cl)cccc3nc12,7.98 µM (inactive),2.02 µM (inactive),5.61 µM (inactive),6.24 µM (inactive),,2 µM (inactive),2.38 µM (inactive),4.46 µM (inactive),4.52 µM (inactive),8.13 µM (inactive),4.93 µM (inactive),4.33 µM (inactive),,3.55 µM (inactive),8.05 µM (inactive),8.85 µM (inactive),4.23 µM (inactive),6.38 µM (inactive),3.92 µM (inactive),
C=CC(C)(C)n1cc(C2=C(O)C(=O)C(c3c(CC=C(C)C)[nH]c4ccccc34)=C(O)C2=O)c2ccccc21,2 µM (inactive),0.34 µM (active),3.03 µM (inactive),1.34 µM (inactive),1.55 µM (inactive),1.82 µM (inactive),1.6 µM (inactive),1.3 µM (inactive),1.57 µM (inactive),1.96 µM (inactive),2.88 µM (inactive),0.624 µM (active),0.711 µM (active),1.53 µM (inactive),0.67 µM (active),1.04 µM (active),1.64 µM (inactive),1.32 µM (inactive),3.43 µM (inactive),
COC(=O)C1N=CSCC1(C)O (configuration not stated),> 100 µM (inactive),> 100 µM (inactive),> 100 µM (inactive),> 100 µM (inactive),,> 100 µM (inactive),> 100 µM (inactive),> 100 µM (inactive),> 100 µM (inactive),> 100 µM (inactive),> 100 µM (inactive),> 100 µM (inactive),,> 100 µM (inactive),> 100 µM (inactive),> 100 µM (inactive),> 100 µM (inactive),> 100 µM (inactive),> 100 µM (inactive),
